Results reported in patent US9809623B2, “α4β7 peptide monomer and dimer antagonists” (Protagonist Therapeutics, Inc., priority 2014, dated 2017).
Where two headings read alike, the source gives them in different places. Numbered stars: 1 amine (or outer) side, 2 acyl side, 3 side chain; on linkers, the order of the positions; unused ones are H or OH. Bridge positions count the residues as written; N and C are the ends. Square brackets hold non-standard residues; d marks the D form. Peptide text beside a SMILES is read from it. I, II: the chains in the order shown. Phe(4-COOH) = N[C@@H](Cc1ccc(C(=O)O)cc1)C(=O)O; Phe(4-tBu) = CC(C)(C)c1ccc(C[C@H](N)C(=O)O)cc1; Bip = N[C@@H](Cc1ccc(-c2ccccc2)cc1)C(=O)O; 1Nal = N[C@@H](Cc1cccc2ccccc12)C(=O)O; Diglycolyl = O=C(COCC(=O)[*:2])[*:1]; NMeR = CN[C@@H](CCCNC(=N)N)C(=O)O; β3hE = N[C@@H](CCC(=O)O)CC(=O)O; NMeK = CN[C@@H](CCCCN)C(=O)O; Pen = CC(C)(S)[C@H](N)C(=O)O; dNMeK = CN[C@H](CCCCN)C(=O)O

Key:
rh integrin α4β7 = target: T1, rh integrin α4β7 (Homo sapiens, UniProt P13612+P26010); experiment: α4β7-MAdCAM Competition ELISA; type: binding
T1 construct: purchased R&D Systems 5397-A30
T1 sequence (P13612 34-977 limits assumed): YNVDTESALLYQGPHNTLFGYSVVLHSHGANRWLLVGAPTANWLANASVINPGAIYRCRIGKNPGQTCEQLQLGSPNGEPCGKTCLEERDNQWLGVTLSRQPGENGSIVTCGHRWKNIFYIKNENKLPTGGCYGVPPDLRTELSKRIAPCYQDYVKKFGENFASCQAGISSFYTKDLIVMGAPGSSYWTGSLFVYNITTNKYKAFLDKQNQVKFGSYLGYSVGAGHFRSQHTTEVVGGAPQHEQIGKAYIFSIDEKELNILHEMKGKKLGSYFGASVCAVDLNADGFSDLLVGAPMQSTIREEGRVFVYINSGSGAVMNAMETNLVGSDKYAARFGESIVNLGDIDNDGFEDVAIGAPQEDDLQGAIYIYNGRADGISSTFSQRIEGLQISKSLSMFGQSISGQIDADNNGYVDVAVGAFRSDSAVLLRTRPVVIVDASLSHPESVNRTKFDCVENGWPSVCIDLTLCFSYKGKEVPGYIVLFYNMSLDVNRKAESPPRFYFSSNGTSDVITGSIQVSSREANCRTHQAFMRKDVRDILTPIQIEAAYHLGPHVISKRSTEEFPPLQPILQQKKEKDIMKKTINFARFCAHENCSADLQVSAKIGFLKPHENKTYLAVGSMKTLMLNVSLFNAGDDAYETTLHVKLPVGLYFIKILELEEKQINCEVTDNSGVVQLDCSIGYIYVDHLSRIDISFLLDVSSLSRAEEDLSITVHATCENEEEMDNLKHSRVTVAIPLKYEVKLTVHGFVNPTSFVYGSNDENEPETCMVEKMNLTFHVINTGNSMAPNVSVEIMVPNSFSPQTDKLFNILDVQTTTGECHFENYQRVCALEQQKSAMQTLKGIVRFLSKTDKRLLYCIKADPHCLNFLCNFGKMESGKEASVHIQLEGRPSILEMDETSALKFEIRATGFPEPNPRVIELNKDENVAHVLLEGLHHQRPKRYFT
T1 sequence (P26010 20-723 limits assumed): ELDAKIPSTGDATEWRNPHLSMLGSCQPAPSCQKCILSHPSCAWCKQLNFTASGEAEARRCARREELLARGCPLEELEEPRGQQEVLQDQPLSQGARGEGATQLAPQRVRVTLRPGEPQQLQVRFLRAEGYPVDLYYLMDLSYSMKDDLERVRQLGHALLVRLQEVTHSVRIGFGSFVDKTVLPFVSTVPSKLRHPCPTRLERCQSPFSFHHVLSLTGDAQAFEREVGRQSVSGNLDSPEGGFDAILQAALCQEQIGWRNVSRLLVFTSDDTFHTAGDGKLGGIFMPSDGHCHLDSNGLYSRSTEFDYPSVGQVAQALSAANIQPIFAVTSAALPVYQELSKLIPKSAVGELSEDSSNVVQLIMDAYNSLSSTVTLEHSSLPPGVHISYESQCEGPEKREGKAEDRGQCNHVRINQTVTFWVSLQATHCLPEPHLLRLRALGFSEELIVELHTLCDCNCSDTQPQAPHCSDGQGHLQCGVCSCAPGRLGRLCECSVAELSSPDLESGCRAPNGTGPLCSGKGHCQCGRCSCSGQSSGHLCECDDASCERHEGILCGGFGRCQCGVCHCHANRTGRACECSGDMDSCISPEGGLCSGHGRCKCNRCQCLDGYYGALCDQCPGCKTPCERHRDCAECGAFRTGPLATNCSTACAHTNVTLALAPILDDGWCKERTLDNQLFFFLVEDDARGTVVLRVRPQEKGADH
Procedure, shortened: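 Competition read-out was A450 after anti-human IgG1-HRP and TMB detection of bound recombinant human MAdCAM-1 (10 nM final). Peptides were serially diluted 3-fold from a final 10 μM and equilibrated 1 h at room temperature on nickel-captured α4β7 (800 ng/well). The buffer was Tris pH 7.6 with 1 mM Mn2+ or Mg2+.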

α4β1 = target: T2, α4β1 (Homo sapiens, UniProt P05556+P13612, DEL729-798); experiment: α4β1-VCAM Competition ELISA; type: binding
T2 construct: purchased R&D Systems 5668-A4
T2 sequence (P13612 34-977 limits assumed, stated change not applied): as the sequence (P13612 34-977 limits assumed) above
T2 sequence (P05556 21-728 limits assumed, stated change not applied): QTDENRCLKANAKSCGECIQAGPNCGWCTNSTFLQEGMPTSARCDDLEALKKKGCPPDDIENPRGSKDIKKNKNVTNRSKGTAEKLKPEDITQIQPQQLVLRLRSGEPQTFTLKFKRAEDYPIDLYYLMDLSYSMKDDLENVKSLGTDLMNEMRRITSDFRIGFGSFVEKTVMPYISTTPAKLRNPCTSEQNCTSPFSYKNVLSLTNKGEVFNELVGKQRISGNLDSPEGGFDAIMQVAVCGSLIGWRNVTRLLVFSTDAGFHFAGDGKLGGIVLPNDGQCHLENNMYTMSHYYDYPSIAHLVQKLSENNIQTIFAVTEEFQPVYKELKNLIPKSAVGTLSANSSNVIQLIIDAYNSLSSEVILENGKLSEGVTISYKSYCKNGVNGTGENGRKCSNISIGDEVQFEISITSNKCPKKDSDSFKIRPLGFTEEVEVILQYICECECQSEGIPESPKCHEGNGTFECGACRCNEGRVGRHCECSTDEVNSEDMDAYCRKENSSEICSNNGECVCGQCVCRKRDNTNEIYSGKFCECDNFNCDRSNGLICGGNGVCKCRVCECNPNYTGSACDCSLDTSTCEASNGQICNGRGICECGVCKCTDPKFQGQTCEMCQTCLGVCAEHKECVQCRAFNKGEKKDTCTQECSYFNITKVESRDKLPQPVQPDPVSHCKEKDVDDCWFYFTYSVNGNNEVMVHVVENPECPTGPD
Procedure, shortened: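 ELISA plates were coated with VCAM-1 Fc at 400 ng/well. Peptide dilutions (highest final 100 μM) and 60 nM α4β1 were incubated 2 h at 37 °C in pH 7.6 Tris buffer containing 1 mM Mn2+ or Mg2+. Integrin retained on the plate was detected by 9F10 antibody, then HRP secondary, with TMB absorbance at 450 nm.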

α4β7 = α4β7 (Homo sapiens, UniProt P13612+P26010); experiment: α4β7-MAdCAM Cell Adhesion Assay (RPMI 8866 human cells); type: cell-based; design: host or cells: RPMI 8866 human B lymphoblastoid cells
α4β7, sequence (P13612 34-1032): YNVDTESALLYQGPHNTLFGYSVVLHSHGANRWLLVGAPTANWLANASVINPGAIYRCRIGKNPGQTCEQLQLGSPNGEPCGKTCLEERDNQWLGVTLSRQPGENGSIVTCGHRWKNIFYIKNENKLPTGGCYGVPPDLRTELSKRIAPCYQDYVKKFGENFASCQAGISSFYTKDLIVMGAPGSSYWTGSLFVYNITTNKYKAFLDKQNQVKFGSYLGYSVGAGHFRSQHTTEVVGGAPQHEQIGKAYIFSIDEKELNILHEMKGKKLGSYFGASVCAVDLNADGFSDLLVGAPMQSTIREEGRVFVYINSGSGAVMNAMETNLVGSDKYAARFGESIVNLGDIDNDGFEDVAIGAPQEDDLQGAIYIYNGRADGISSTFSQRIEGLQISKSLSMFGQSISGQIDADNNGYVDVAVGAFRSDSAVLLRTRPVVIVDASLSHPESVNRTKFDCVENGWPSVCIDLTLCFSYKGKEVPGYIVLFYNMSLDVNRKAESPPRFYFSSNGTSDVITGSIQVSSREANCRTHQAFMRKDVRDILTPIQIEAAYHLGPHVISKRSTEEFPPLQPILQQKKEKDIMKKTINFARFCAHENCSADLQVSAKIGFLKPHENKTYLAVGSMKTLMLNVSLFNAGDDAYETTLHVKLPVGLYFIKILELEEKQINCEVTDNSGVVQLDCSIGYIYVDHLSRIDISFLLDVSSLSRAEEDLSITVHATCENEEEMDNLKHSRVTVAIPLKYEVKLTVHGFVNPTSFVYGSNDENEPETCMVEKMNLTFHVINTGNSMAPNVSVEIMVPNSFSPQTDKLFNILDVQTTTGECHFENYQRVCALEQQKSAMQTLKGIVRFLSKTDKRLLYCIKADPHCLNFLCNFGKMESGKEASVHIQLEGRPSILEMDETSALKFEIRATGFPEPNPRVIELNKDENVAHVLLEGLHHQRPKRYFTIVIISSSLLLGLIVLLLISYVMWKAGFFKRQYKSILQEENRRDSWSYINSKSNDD
α4β7, sequence (P26010 20-798): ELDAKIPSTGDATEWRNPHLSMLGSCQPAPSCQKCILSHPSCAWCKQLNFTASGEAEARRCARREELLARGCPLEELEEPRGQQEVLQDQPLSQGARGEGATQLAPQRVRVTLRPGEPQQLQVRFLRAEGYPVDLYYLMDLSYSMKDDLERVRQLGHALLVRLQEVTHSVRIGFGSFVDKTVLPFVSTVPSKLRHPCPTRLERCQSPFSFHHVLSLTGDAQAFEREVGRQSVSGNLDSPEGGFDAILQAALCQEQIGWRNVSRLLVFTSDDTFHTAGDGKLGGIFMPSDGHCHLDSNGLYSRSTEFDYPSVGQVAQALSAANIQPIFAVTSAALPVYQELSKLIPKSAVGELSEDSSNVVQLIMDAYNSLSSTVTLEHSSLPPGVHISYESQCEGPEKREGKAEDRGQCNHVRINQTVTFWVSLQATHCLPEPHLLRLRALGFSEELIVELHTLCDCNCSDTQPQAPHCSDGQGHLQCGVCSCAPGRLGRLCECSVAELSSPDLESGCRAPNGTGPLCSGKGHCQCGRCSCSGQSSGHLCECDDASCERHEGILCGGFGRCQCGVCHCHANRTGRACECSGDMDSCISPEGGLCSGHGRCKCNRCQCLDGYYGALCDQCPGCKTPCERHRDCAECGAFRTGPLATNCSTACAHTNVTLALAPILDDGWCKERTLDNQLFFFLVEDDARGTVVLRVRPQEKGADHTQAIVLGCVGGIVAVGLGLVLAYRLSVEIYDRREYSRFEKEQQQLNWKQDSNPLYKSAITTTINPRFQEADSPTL
Procedure, shortened: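 Adhesion read-out: MTT absorbance at 570 nm minus no-cell wells, after three washes. Plates coated with rh MAdCAM-1/Fc received peptide dilutions plus 200,000 RPMI 8866 cells in Mn2+ (1 mM)-supplemented DMEM, 0.1% BSA, HEPES pH 7, incubated 30-45 min, 37 °C.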

[1] = Table 4-B, read-out: ELISA α4β7 IC50
[2] = Table 4-B, read-out: ELISA_α4β1 IC50
[3] = Table 4-B, read-out: Cell Adhesion α4β7 IC50
[4] = Table 3-B, Potency (α4β7), range classes, read-out: α4β7 ELISA IC50
[5] = Table 3-B, Selectivity (α4β1), range classes, read-out: α4β1 ELISA IC50
[6] = Table 3-B, Potency (α4β7), range classes, read-out: α4β7 cell (Hu) IC50

SMILES	IC50 (rh integrin α4β7; [1])	IC50 (α4β1; [2])	IC50 (α4β7; [3])	IC50 (rh integrin α4β7; [4])	IC50 (α4β1; [5])	IC50 (α4β7; [6])
CC(=O)N[C@H]1CSSC(C)(C)[C@@H](C(=O)N[C@@H](Cc2c[nH]c3ccccc23)C(=O)N[C@H](CCCCNC(=O)COCC(=O)NCCCC[C@@H](NC(=O)[C@H](Cc2c[nH]c3ccccc23)NC(=O)[C@H]2NC(=O)[C@H](CC(C)C)NC(=O)[C@H]([C@@H](C)O)NC(=O)[C@H](CC(=O)O)NC(=O)[C@H](CO)NC(=O)[C@H](CCCNC(=N)N)N(C)C(=O)[C@@H](NC(C)=O)CSSC2(C)C)C(N)=O)C(N)=O)NC(=O)[C@H](CC(C)C)NC(=O)[C@H]([C@@H](C)O)NC(=O)[C@H](CC(=O)O)NC(=O)[C@H](CO)NC(=O)[C@H](CCCNC(=N)N)N(C)C1=O [compound 204, (Ac-C-N-Me-R-S-D-T-L-Pen-W-k-NH2)2-DIG] (I: Ac-C[NMeR]SDTL[Pen]W[dK]-NH2 / II: Ac-C[NMeR]SDTL[Pen]W[dK]-NH2; disulfide I:1-I:7, II:1-II:7 (inferred); linker I:9-II:9 via Diglycolyl (inferred))	2 nM	463 nM	22 nM			
CC(=O)N[C@H]1CSSC[C@@H](C(=O)NCC(=O)N[C@@H](CCC(=O)O)C(N)=O)NC(=O)[C@H](CC(C)C)NC(=O)[C@H]([C@@H](C)O)NC(=O)[C@H](CC(=O)O)NC(=O)[C@H](CO)NC(=O)[C@H](CCCNC(=N)N)N(C)C1=O [compound 198, Ac-C-N-Me-R-S-D-T-L-C-G-E-NH2] (Ac-C[NMeR]SDTLCGE-NH2; disulfide 1-7)	20 nM	1290 nM	1120 nM			
CC(=O)N[C@@H]1C(=O)N(C)[C@@H](CCCNC(=N)N)C(=O)N[C@@H](CO)C(=O)N[C@@H](CC(=O)O)C(=O)N[C@@H]([C@@H](C)O)C(=O)N[C@@H](CC(C)C)C(=O)N[C@H](C(=O)N[C@@H](Cc2ccc(C(C)(C)C)cc2)C(=O)N[C@@H](CCC(=O)O)CC(=O)N(C)[C@@H](CCCCNC(=O)COCC(=O)NCCCC[C@@H](C(N)=O)N(C)C(=O)C[C@H](CCC(=O)O)NC(=O)[C@H](Cc2ccc(C(C)(C)C)cc2)NC(=O)[C@H]2NC(=O)[C@H](CC(C)C)NC(=O)[C@H]([C@@H](C)O)NC(=O)[C@H](CC(=O)O)NC(=O)[C@H](CO)NC(=O)[C@H](CCCNC(=N)N)N(C)C(=O)[C@@H](NC(C)=O)C(C)(C)SSC2(C)C)C(N)=O)C(C)(C)SSC1(C)C [compound 149] (I: Ac-[Pen][NMeR]SDTL[Pen][Phe(4-tBu)][β3hE][NMeK]-NH2 / II: Ac-[Pen][NMeR]SDTL[Pen][Phe(4-tBu)][β3hE][NMeK]-NH2; disulfide I:1-I:7, II:1-II:7; linker I:10-II:10 via Diglycolyl)				< 10 nM	500 to 1000 nM	< 10 nM
CC(=O)N[C@@H]1C(=O)N(C)[C@@H](CCCNC(=N)N)C(=O)N[C@@H](CO)C(=O)N[C@@H](CC(=O)O)C(=O)N[C@@H]([C@@H](C)O)C(=O)N[C@@H](CC(C)C)C(=O)N[C@H](C(=O)N[C@@H](Cc2ccc(C(=O)O)cc2)C(=O)N[C@@H](CCC(=O)O)C(=O)N(C)[C@@H](CCCCNC(=O)COCC(=O)NCCCC[C@@H](C(N)=O)N(C)C(=O)[C@H](CCC(=O)O)NC(=O)[C@H](Cc2ccc(C(=O)O)cc2)NC(=O)[C@H]2NC(=O)[C@H](CC(C)C)NC(=O)[C@H]([C@@H](C)O)NC(=O)[C@H](CC(=O)O)NC(=O)[C@H](CO)NC(=O)[C@H](CCCNC(=N)N)N(C)C(=O)[C@@H](NC(C)=O)C(C)(C)SSC2(C)C)C(N)=O)C(C)(C)SSC1(C)C [compound 147] (I: Ac-[Pen][NMeR]SDTL[Pen][Phe(4-COOH)]E[NMeK]-NH2 / II: Ac-[Pen][NMeR]SDTL[Pen][Phe(4-COOH)]E[NMeK]-NH2; disulfide I:1-I:7, II:1-II:7; linker I:10-II:10 via Diglycolyl)				< 10 nM	100 to 500 nM	< 10 nM
CC(=O)N[C@@H]1C(=O)N(C)[C@@H](CCCNC(=N)N)C(=O)N[C@@H](CO)C(=O)N[C@@H](CC(=O)O)C(=O)N[C@@H]([C@@H](C)O)C(=O)N[C@@H](CC(C)C)C(=O)N[C@H](C(=O)N[C@@H](Cc2c[nH]c3ccccc23)C(=O)N[C@@H](CCC(=O)O)C(=O)N[C@H](CCCCNC(=O)COCC(=O)NCCCC[C@@H](NC(=O)[C@H](CCC(=O)O)NC(=O)[C@H](Cc2c[nH]c3ccccc23)NC(=O)[C@H]2NC(=O)[C@H](CC(C)C)NC(=O)[C@H]([C@@H](C)O)NC(=O)[C@H](CC(=O)O)NC(=O)[C@H](CO)NC(=O)[C@H](CCCNC(=N)N)N(C)C(=O)[C@@H](NC(C)=O)C(C)(C)SSC2(C)C)C(=O)O)C(=O)O)C(C)(C)SSC1(C)C [compound 78] (I: Ac-[Pen][NMeR]SDTL[Pen]WE[dK]-OH / II: Ac-[Pen][NMeR]SDTL[Pen]WE[dK]-OH; disulfide I:1-I:7, II:1-II:7; linker I:10-II:10 via Diglycolyl)				< 10 nM	100 to 500 nM	< 10 nM
CC(=O)N[C@@H]1C(=O)N(C)[C@@H](CCCNC(=N)N)C(=O)N[C@@H](CO)C(=O)N[C@@H](CC(=O)O)C(=O)N[C@@H]([C@@H](C)O)C(=O)N[C@@H](CC(C)C)C(=O)N[C@H](C(=O)N[C@@H](Cc2cccc3ccccc23)C(=O)N[C@@H](CCC(=O)O)CC(=O)N(C)[C@@H](CCCCNC(=O)COCC(=O)NCCCC[C@@H](C(N)=O)N(C)C(=O)C[C@H](CCC(=O)O)NC(=O)[C@H](Cc2cccc3ccccc23)NC(=O)[C@H]2NC(=O)[C@H](CC(C)C)NC(=O)[C@H]([C@@H](C)O)NC(=O)[C@H](CC(=O)O)NC(=O)[C@H](CO)NC(=O)[C@H](CCCNC(=N)N)N(C)C(=O)[C@@H](NC(C)=O)C(C)(C)SSC2(C)C)C(N)=O)C(C)(C)SSC1(C)C [compound 142] (I: Ac-[Pen][NMeR]SDTL[Pen][1Nal][β3hE][NMeK]-NH2 / II: Ac-[Pen][NMeR]SDTL[Pen][1Nal][β3hE][NMeK]-NH2; disulfide I:1-I:7, II:1-II:7; linker I:10-II:10 via Diglycolyl)				< 10 nM	500 to 1000 nM	< 10 nM
CC(=O)N[C@@H]1C(=O)N(C)[C@@H](CCCNC(=N)N)C(=O)N[C@@H](CO)C(=O)N[C@@H](CC(=O)O)C(=O)N[C@@H]([C@@H](C)O)C(=O)N[C@@H](CC(C)C)C(=O)N[C@H](C(=O)N[C@@H](Cc2ccc(-c3ccccc3)cc2)C(=O)N[C@@H](CCC(=O)O)CC(=O)N(C)[C@@H](CCCCNC(=O)COCC(=O)NCCCC[C@@H](C(N)=O)N(C)C(=O)C[C@H](CCC(=O)O)NC(=O)[C@H](Cc2ccc(-c3ccccc3)cc2)NC(=O)[C@H]2NC(=O)[C@H](CC(C)C)NC(=O)[C@H]([C@@H](C)O)NC(=O)[C@H](CC(=O)O)NC(=O)[C@H](CO)NC(=O)[C@H](CCCNC(=N)N)N(C)C(=O)[C@@H](NC(C)=O)C(C)(C)SSC2(C)C)C(N)=O)C(C)(C)SSC1(C)C [compound 150] (I: Ac-[Pen][NMeR]SDTL[Pen][Bip][β3hE][NMeK]-NH2 / II: Ac-[Pen][NMeR]SDTL[Pen][Bip][β3hE][NMeK]-NH2; disulfide I:1-I:7, II:1-II:7; linker I:10-II:10 via Diglycolyl)				< 10 nM	1000 to 10000 nM	< 10 nM
CC(=O)N[C@@H]1C(=O)N(C)[C@@H](CCCNC(=N)N)C(=O)N[C@@H](CO)C(=O)N[C@@H](CC(=O)O)C(=O)N[C@@H]([C@@H](C)O)C(=O)N[C@@H](CC(C)C)C(=O)N[C@H](C(=O)N[C@@H](Cc2cccc3ccccc23)C(=O)N[C@@H](CCC(=O)O)C(=O)N(C)[C@H](CCCCNC(=O)COCC(=O)NCCCC[C@H](C(N)=O)N(C)C(=O)[C@H](CCC(=O)O)NC(=O)[C@H](Cc2cccc3ccccc23)NC(=O)[C@H]2NC(=O)[C@H](CC(C)C)NC(=O)[C@H]([C@@H](C)O)NC(=O)[C@H](CC(=O)O)NC(=O)[C@H](CO)NC(=O)[C@H](CCCNC(=N)N)N(C)C(=O)[C@@H](NC(C)=O)C(C)(C)SSC2(C)C)C(N)=O)C(C)(C)SSC1(C)C [compound 44] (I: Ac-[Pen][NMeR]SDTL[Pen][1Nal]E[dNMeK]-NH2 / II: Ac-[Pen][NMeR]SDTL[Pen][1Nal]E[dNMeK]-NH2; disulfide I:1-I:7, II:1-II:7; linker I:10-II:10 via Diglycolyl)				< 10 nM	100 to 500 nM	< 10 nM
CC(=O)N[C@H]1CSSC[C@@H](C(N)=O)NC(=O)[C@H](CC(C)C)NC(=O)[C@H]([C@@H](C)O)NC(=O)[C@H](CC(=O)O)NC(=O)[C@H](CO)NC(=O)[C@H](CCCNC(=N)N)NC1=O [compound 195, Ac-C-R-S-D-T-L-C-NH2] (Ac-CRSDTLC-NH2; disulfide 1-7)	97 nM	2880 nM	1220 nM			
